Data taken from ChEMBL document CHEMBL3804809, “Fatty Acid Transport Proteins: Targeting FATP2 as a Gatekeeper Involved in the Transport of Exogenous Fatty Acids” (Medchemcomm, 2016).
pIC50: −log10 of the molar value. Blank lines part the entries; values can stand above or below the compound they belong to.

Tests used:
[1] = biological target: Long-chain fatty acid transport protein 2 (Homo sapiens, UniProt O14975); experiment: Inhibition of FATP2 in human HepG2 cells assessed as decrease in fatty acid transport after 5 mins by trypan blue dye based fluorescence quenching method; format: cell-based
Long-chain fatty acid transport protein 2, sequence (O14975 whole entry, looked up): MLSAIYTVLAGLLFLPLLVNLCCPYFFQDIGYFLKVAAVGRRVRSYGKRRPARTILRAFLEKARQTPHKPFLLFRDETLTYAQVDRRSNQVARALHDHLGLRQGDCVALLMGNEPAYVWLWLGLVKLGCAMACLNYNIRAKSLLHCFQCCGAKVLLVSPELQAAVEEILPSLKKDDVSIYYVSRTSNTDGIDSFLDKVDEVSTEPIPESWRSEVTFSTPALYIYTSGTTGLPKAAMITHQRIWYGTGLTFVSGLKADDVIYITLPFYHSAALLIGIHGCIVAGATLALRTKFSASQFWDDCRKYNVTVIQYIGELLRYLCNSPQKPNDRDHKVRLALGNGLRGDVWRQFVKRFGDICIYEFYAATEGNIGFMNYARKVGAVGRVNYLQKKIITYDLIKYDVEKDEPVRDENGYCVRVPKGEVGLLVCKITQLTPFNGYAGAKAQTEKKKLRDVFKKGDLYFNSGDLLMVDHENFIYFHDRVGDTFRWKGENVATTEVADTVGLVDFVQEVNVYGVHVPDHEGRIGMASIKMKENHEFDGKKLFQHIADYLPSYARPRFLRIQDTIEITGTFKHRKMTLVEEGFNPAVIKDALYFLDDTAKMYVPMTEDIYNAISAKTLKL

[2] = tested on: Mus musculus; experiment: Inhibition of 3C18-oleate absorption in tyloxapol-treated C57BL/6 mouse plasma at 300 mg/kg administered through gavage for 1 hr followed by 3C18-oleate addition measured after 0.5 to 6 hrs by LC/MS-MS analysis; format: functional; details: C57BL/6, Plasma, po
[3] = tested on: Mus musculus; experiment: Upregulation of FATP2 mRNA level in C57BL mouse small intestine at 0.01% administered through diet for 3 days by RT-PCR analysis; format: functional
[4] = tested on: Mus musculus; experiment: Downregulation of FATP2 mRNA level in […] null C57BL mouse small intestine at 0.01% administered through diet for 3 days by RT-PCR analysis; format: functional
[5] = tested on: Mus musculus; experiment: Downregulation of FATP2 mRNA level in […] null C57BL mouse small intestine at 0.1% administered through diet for 3 days by RT-PCR analysis; format: functional
[6] = tested on: Mus musculus; experiment: Upregulation of FATP2 mRNA level in C57BL mouse small intestine at 0.1% administered through diet for 3 days by RT-PCR analysis; format: functional

pIC50 [1]: 5.17
Compound: O=C1Nc2ccc(Br)cc2C12NN=C(c1ccccc1)S2 (configuration not stated)
inhibition in vivo at 300 mg/kg [2]: 80%

pIC50 [1]: 5.20
Compound: O=c1cc(-c2ccc([N+](=O)[O-])cc2)[nH]c2c(-c3ccc(Cl)cc3)c(Cc3ccccc3)nn12

Compound: CC(C)(Sc1ccc(CCN(CCCCC2CCCCC2)C(=O)NC2CCCCC2)cc1)C(=O)O [GW7647]
fold change (FC) [3]: 4 | fold change (FC) [4]: 2

Compound: Cc1cccc(Nc2cc(Cl)nc(SCC(=O)O)n2)c1C [PIRINIXIC ACID]
fold change (FC) [5]: 2 | fold change (FC) [6]: 4
